Results taken from patent publication US10640506B2, “Cyclobutyl substituted pyrrolopyridine and pyrrolopyrimidines derivatives as JAK inhibitors” (Incyte Corporation, priority 2010, dated 2020).
Structures can show the parent of a compound that is named as a salt. Where two headings read alike, the source gives them in different places. Blank lines part the entries; values can stand above or below the compound they belong to.

Legend:
[1] = target: human JAK1 (a.a. 837-1142) (Homo sapiens, UniProt P23458); experiment: In vitro JAK kinase assay (HTRF, phosphorylation of biotinylated peptide), JAK1; assay type: biochemical; conditions: 1 mM ATP
Sequence of human JAK1 (a.a. 837-1142) (P23458 849-1154): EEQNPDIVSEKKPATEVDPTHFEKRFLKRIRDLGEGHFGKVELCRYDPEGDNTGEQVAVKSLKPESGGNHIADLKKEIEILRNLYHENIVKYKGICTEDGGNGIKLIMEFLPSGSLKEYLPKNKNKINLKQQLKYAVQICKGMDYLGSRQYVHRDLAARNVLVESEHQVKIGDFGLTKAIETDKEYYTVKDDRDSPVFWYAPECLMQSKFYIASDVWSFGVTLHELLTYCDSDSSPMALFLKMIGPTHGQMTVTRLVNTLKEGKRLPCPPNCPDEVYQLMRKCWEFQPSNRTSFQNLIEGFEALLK
Protocol: Compounds herein were tested for inhibitory activity of JAK targets according to the following in vitro assay described in Park et al., Analytical Biochemistry 1999, 269, 94-104. The catalytic domains of human JAK1 (a.a. 837-1142) and JAK2 (a.a. 828-1132) with an N-terminal His tag were expressed using baculovirus in insect cells and purified. The catalytic activity of JAK1 and JAK2 was assayed by measuring the phosphorylation of a biotinylated peptide. The phosphorylated peptide was detected by homogenous time resolved fluorescence (HTRF). […] Reactions were carried out at room temperature for 1 hour and then stopped with 20 μL 45 mM EDTA, 300 nM SA-APC, 6 nM Eu-Py20 in assay buffer (Perkin Elmer, Boston, Mass.). Binding to the Europium labeled antibody took place for 40 minutes and HTRF signal was measured on a Fusion plate reader (Perkin Elmer, Boston, Mass.). […] Data is indicated as ranges, wherein “+” is less than 10 nM; “++” is 10 nM to 25 nM; “+++” is greater than 25 nM to 100 nM; and “++++” is greater than 100 nM. Greater than 25 nM to 100 nM specifies a range with a lower endpoint “at greater than 25 nM” and an upper endpoint at 100 nM.

JAK2 (a.a. 828-1132) = target: T1, JAK2 (a.a. 828-1132) (Homo sapiens, UniProt O60674); experiment: In vitro JAK kinase assay (HTRF, phosphorylation of biotinylated peptide), JAK2; assay type: biochemical; conditions: 1 mM ATP
T1 construct: JAK2 (a.a. 828-1132); His tag (N)
T1 sequence (O60674 828-1132): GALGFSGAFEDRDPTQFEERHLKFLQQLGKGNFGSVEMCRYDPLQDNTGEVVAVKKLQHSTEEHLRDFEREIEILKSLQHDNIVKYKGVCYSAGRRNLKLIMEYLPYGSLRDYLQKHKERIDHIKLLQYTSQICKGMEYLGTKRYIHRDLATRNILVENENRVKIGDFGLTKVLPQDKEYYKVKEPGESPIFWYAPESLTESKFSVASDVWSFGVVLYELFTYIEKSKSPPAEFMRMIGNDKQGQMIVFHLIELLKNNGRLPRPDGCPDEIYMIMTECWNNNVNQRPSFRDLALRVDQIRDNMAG
Protocol: Compounds herein were tested for inhibitory activity of JAK targets according to the following in vitro assay described in Park et al., Analytical Biochemistry 1999, 269, 94-104. The catalytic domains of human JAK1 (a.a. 837-1142) and JAK2 (a.a. 828-1132) with an N-terminal His tag were expressed using baculovirus in insect cells and purified. The catalytic activity of JAK1 and JAK2 was assayed by measuring the phosphorylation of a biotinylated peptide. The phosphorylated peptide was detected by homogenous time resolved fluorescence (HTRF). […] Reactions were carried out at room temperature for 1 hour and then stopped with 20 μL 45 mM EDTA, 300 nM SA-APC, 6 nM Eu-Py20 in assay buffer (Perkin Elmer, Boston, Mass.). Binding to the Europium labeled antibody took place for 40 minutes and HTRF signal was measured on a Fusion plate reader (Perkin Elmer, Boston, Mass.). See Tables A-F for data related to compounds of the Examples (at 1 mM). Data is indicated as ranges, wherein “+” is less than 10 nM; “++” is 10 nM to 25 nM; “+++” is greater than 25 nM to 100 nM; and “++++” is greater than 100 nM. Greater than 25 nM to 100 nM specifies a range with a lower endpoint “at greater than 25 nM” and an upper endpoint at 100 nM.

[2] = read-out: JAK1 IC50 (nM) at 1 mM, Table E

IC50 ([1]; Table B, read-out: JAK1 IC50): 10 to 25 nM | IC50 (JAK2 (a.a. 828-1132); Table B, read-out: JAK2 IC50): > 100 nM
SMILES: N#CC[C@]1(n2cc(-c3ncnc4[nH]ccc34)cn2)C[C@H](N2CCN(C(=O)Nc3ccc(F)cc3C(F)(F)F)CC2)C1 [Example 3b, 4-{3-(cyanomethyl)-3-[4-(7H-pyrrolo[2,3-d]pyrimidin-4-yl)-1H-pyrazol-1-yl]cyclobutyl}-N-[4-fluoro-2-(trifluoromethyl)phenyl]piperazine-1-carboxamide 2.3×(trifluoroacetate) Salt]

IC50 ([1]; Table A, read-out: JAK1 IC50): < 10 nM | IC50 (JAK2 (a.a. 828-1132); Table A, read-out: JAK2 IC50): > 100 nM
SMILES: N#CC[C@]1(n2cc(-c3ncnc4[nH]ccc34)cn2)C[C@@H](N2CCN(C(=O)c3cncc(F)c3)CC2)C1 [Example 10a, {cis-3-{4-[(5-fluoropyridin-3-yl)carbonyl]piperazin-1-yl}-1-[4-(7H-pyrrolo[2,3-d]pyrimidin-4-yl)-1H-pyrazol-1-yl]cyclobutyl}acetonitrile]

IC50 ([1]; Table B, read-out: JAK1 IC50): < 10 nM | IC50 (JAK2 (a.a. 828-1132); Table B, read-out: JAK2 IC50): 25 to 100 nM
SMILES: N#CC[C@]1(n2cc(-c3ncnc4[nH]ccc34)cn2)C[C@H](N2CCN(C(=O)c3ccnc(C(F)(F)F)c3F)CC2)C1 [Example 6b, {trans-3-{4-[3-fluoro-2-(trifluoromethyl)isonicotinoyl]piperazin-1-yl}-1-[4-(7H-pyrrolo[2,3-d]pyrimidin-4-yl)-1H-pyrazol-1-yl]cyclobutyl}acetonitrile]

IC50 ([1]; Table F): < 10 nM | IC50 (JAK2 (a.a. 828-1132); Table F): < 10 nM
SMILES: N#CC[C@]1(n2cc(-c3ncnc4[nH]ccc34)cn2)C[C@H](N2CCN(C(=O)c3cc(C4(N)CCC4)nc(C(F)(F)F)n3)CC2)C1 [Example 61, {trans-3-(4-{[6-(1-aminocyclobutyl)-2-(trifluoromethyl)pyrimidin-4-yl]carbonyl}piperazin-1-yl)-1-[4-(7H-pyrrolo[2,3-d]pyrimidin-4-yl)-1H-pyrazol-1-yl]cyclobutyl}acetonitrile]

IC50 ([1]; Table A, read-out: JAK1 IC50): 10 to 25 nM | IC50 (JAK2 (a.a. 828-1132); Table A, read-out: JAK2 IC50): > 100 nM
SMILES: N#CC[C@]1(n2cc(-c3ncnc4[nH]ccc34)cn2)C[C@@H](N2CCN(C(=O)c3ccnc(C(F)(F)F)c3F)CC2)C1 [Example 6a, {cis-3-{4-[3-fluoro-2-(trifluoromethyl)isonicotinoyl]piperazin-1-yl}-1-[4-(7H-pyrrolo[2,3-d]pyrimidin-4-yl)-1H-pyrazol-1-yl]cyclobutyl}acetonitrile]

IC50 ([1]; Table F): < 10 nM | IC50 (JAK2 (a.a. 828-1132); Table F): 25 to 100 nM
SMILES: CC(C)(C)NCc1cc(OC2CCN([C@H]3C[C@](CC#N)(n4cc(-c5ncnc6[nH]ccc56)cn4)C3)CC2)nc(C(F)(F)F)c1 [Example 127, {trans-3-(4-{[4-[(tert-butylamino)methyl]-6-(trifluoromethyl)pyridin-2-yl]oxy}piperidin-1-yl)-1-[4-(7H-pyrrolo[2,3-d]pyrimidin-4-yl)-1H-pyrazol-1-yl]cyclobutyl}acetonitrile]

IC50 ([1]; Table F): < 10 nM | IC50 (JAK2 (a.a. 828-1132); Table F): > 100 nM
SMILES: CC(C)[C@@H](C)NC(=O)N1CCN([C@H]2C[C@@](CC#N)(n3cc(-c4ncnc5[nH]ccc45)cn3)C2)CC1 [Example 110, 4-{cis-3-(cyanomethyl)-3-[4-(7H-pyrrolo[2,3-d]pyrimidin-4-yl)-1H-pyrazol-1-yl]cyclobutyl}-N-[(1R)-1,2-dimethylpropyl]piperazine-1-carboxamide]

SMILES: CN(C)Cc1cc(F)cc(OC2CCN(C3CC(CC#N)(n4cc(-c5ncnc6[nH]ccc56)cn4)C3)CC2)c1 (single isomer, unassigned; isomer 1) [Example 40, isomer 1, {cis-3-(4-{3-[(dimethylamino)methyl]-5-fluorophenoxy}piperidin-1-yl)-1-[4-(7H-pyrrolo[2,3-d]pyrimidin-4-yl)-1H-pyrazol-1-yl]cyclobutyl}acetonitrile]
IC50 [1, 2]: < 10 nM | IC50 (JAK2 (a.a. 828-1132); Table E, listed as 40, isomer 1, read-out: JAK2 IC50 (nM) +): 10 to 25 nM

IC50 ([1]; Table C, read-out: JAK1 IC50): < 10 nM | IC50 (JAK2 (a.a. 828-1132); Table C, read-out: JAK2 IC50): > 100 nM
SMILES: [2H][C@]1(N2CCN(C(=O)c3ccnc(C(F)(F)F)n3)CC2)C[C@@](CC#N)(n2cc(-c3ncnc4[nH]ccc34)cn2)C1 [Example 30, [cis-1-[4-(7H-pyrrolo[2,3-d]pyrimidin-4-yl)-1H-pyrazol-1-yl]-3-(4-{[2-(trifluoromethyl)pyrimidin-4-yl]carbonyl}piperazin-1-yl)cyclobutyl]acetonitrile-d1]

IC50 ([1]; Table F): < 10 nM | IC50 (JAK2 (a.a. 828-1132); Table F): > 100 nM
SMILES: CC[C@H](NC(=O)N1CCN([C@H]2C[C@](CC#N)(n3cc(-c4ncnc5[nH]ccc45)cn3)C2)CC1)C(F)(F)F [Example 115, 4-{trans-3-(cyanomethyl)-3-[4-(7H-pyrrolo[2,3-d]pyrimidin-4-yl)-1H-pyrazol-1-yl]cyclobutyl}-N-[(1S)-1-(trifluoromethyl)propyl]piperazine-1-carboxamide]

IC50 ([1]; Table F): < 10 nM | IC50 (JAK2 (a.a. 828-1132); Table F): 25 to 100 nM
SMILES: N#CC[C@]1(n2cc(-c3ncnc4[nH]ccc34)cn2)C[C@H](N2CCN(C(=O)c3cc(CN4CCCC4)nc(C(F)(F)F)n3)CC2)C1 [Example 53, {trans-3-(4-{[6-(pyrrolidin-1-ylmethyl)-2-(trifluoromethyl)pyrimidin-4-yl]carbonyl}piperazin-1-yl)-1-[4-(7H-pyrrolo[2,3-d]pyrimidin-4-yl)-1H-pyrazol-1-yl]cyclobutyl}acetonitrile]

IC50 ([1]; Table D, read-out: JAK1 IC50): < 10 nM | IC50 (JAK2 (a.a. 828-1132); Table D, read-out: JAK2 IC50): 25 to 100 nM
SMILES: [2H][C@]1(N2CCN(C(=O)c3ccnc(C(F)(F)F)n3)CC2)C[C@](CC#N)(n2cc(-c3ncnc4[nH]ccc34)cn2)C1 [Example 31, [trans-1-[4-(7H-pyrrolo[2,3-d]pyrimidin-4-yl)-1H-pyrazol-1-yl]-3-(4-{[2-(trifluoromethyl)pyrimidin-4-yl]carbonyl}piperazin-1-yl)cyclobutyl]acetonitrile-d1]

IC50 ([1]; Table F): < 10 nM | IC50 (JAK2 (a.a. 828-1132); Table F): 10 to 25 nM
SMILES: COCc1cc(C(=O)N2CCN([C@H]3C[C@](CC#N)(n4cc(-c5ncnc6[nH]ccc56)cn4)C3)CC2)nc(C(F)(F)F)c1 [Example 76, {trans-3-(4-{[4-(methoxymethyl)-6-(trifluoromethyl)pyridin-2-yl]carbonyl}piperazin-1-yl)-1-[4-(7H-pyrrolo[2,3-d]pyrimidin-4-yl)-1H-pyrazol-1-yl]cyclobutyl}acetonitrile]

IC50 ([1]; Table F): < 10 nM | IC50 (JAK2 (a.a. 828-1132); Table F): 25 to 100 nM
SMILES: N#CC[C@]1(n2cc(-c3ncnc4[nH]ccc34)cn2)C[C@H](N2CCN(C(=O)c3cc(CO)nc(C(F)(F)F)n3)CC2)C1 [Example 51, {trans-3-(4-{[6-(hydroxymethyl)-2-(trifluoromethyl)pyrimidin-4-yl]carbonyl}piperazin-1-yl)-1-[4-(7H-pyrrolo[2,3-d]pyrimidin-4-yl)-1H-pyrazol-1-yl]cyclobutyl}acetonitrile]

IC50 ([1]; Table B, read-out: JAK1 IC50): < 10 nM | IC50 (JAK2 (a.a. 828-1132); Table B, read-out: JAK2 IC50): 25 to 100 nM
SMILES: N#CC[C@]1(n2cc(-c3ncnc4[nH]ccc34)cn2)C[C@H](N2CCN(Cc3cc(F)cc(C#N)c3)CC2)C1 [Example 1b, 3-[(4-{trans-3-(cyanomethyl)-3-[4-(7H-pyrrolo[2,3-d]pyrimidin-4-yl)-1H-pyrazol-1-yl]cyclobutyl}piperazin-1-yl)methyl]-5-fluorobenzonitrile]

SMILES: C[C@H]1CCCN1Cc1cc(F)cc(OC2CCN(C3CC(CC#N)(n4cc(-c5ncnc6[nH]ccc56)cn4)C3)CC2)c1 (single isomer, unassigned; isomer 1) [Example 41, isomer 1]
IC50 [1, 2]: < 10 nM | IC50 (JAK2 (a.a. 828-1132); Table E, listed as 41, isomer 1, read-out: JAK2 IC50 (nM) +): 10 to 25 nM

IC50 ([1]; Table F): < 10 nM | IC50 (JAK2 (a.a. 828-1132); Table F): 10 to 25 nM
SMILES: CC(C)(O)c1cc(C(=O)N2CCN([C@H]3C[C@](CC#N)(n4cc(-c5ncnc6[nH]ccc56)cn4)C3)CC2)nc(C(F)(F)F)c1 [Example 75, {trans-3-(4-{[4-(1-hydroxy-1-methylethyl)-6-(trifluoromethyl)pyridin-2-yl]carbonyl}piperazin-1-yl)-1-[4-(7H-pyrrolo[2,3-d]pyrimidin-4-yl)-1H-pyrazol-1-yl]cyclobutyl}acetonitrile]
